Source: ChEMBL document CHEMBL3585275, “Glycosyl hydroperoxides: a new class of potential antimalarial agents” (Bioorg Med Chem, 2015)
Values after ≈ are worked out from the molar mass of the structure shown.

Key:
[1] = Inhibition of hemin crystallization at 0.25 to 10 mol equiv after 18 hrs by spectrophotometric analysis; format: physicochemical
Plasmodium falciparum [2] = test: Antimalarial activity against chloroquine-sensitive Plasmodium falciparum D10 infected in human type A-positive red blood cells assessed as parasite growth inhibition after 72 hrs by lactate dehydrogenase assay; format: functional, organism-based; settings: D10, 72 h
Plasmodium falciparum [3] = test: Antimalarial activity against chloroquine-resistant Plasmodium falciparum W2 infected in human type A-positive red blood cells assessed as parasite growth inhibition after 72 hrs by lactate dehydrogenase assay; format: functional, organism-based; settings: W2, 72 h

SMILES | inhibition (INH) [1] | IC50 (Plasmodium falciparum [2]) | IC50 (Plasmodium falciparum [3])
CCCCCCCOC[C@H]1O[C@H](OO)C[C@@H](OCCCCCCC)[C@H]1OCCCCCCC | Not Active | > 5 µg/mL | > 5 µg/mL
CCCCCCCCCCCCOC[C@H]1O[C@H](OO)C[C@@H](OCCCCCCCCCCCC)[C@H]1OCCCCCCCCCCCC | Not Active | > 5 µg/mL | > 5 µg/mL
CCCCCCCCCCCCCCCCCCOC[C@H]1O[C@H](OO)C[C@@H](OCCCCCCCCCCCCCCCCCC)[C@H]1OCCCCCCCCCCCCCCCCCC | Not Active | > 5 µg/mL | > 5 µg/mL
CCCCCCCO[C@H]1C[C@@H](OO)OC[C@H]1OCCCCCCC | Active | 1.42 µg/mL (≈ 4.09 µM) | 1.69 µg/mL (≈ 4.88 µM)
CCCCCCCCCCCCCCCCCC(=O)O[C@@H]1C[C@@H](OO)O[C@H]1[C@@H](O)CO | Not Active | > 5 µg/mL | > 5 µg/mL
C[C@@H]1CC[C@H]2[C@@H](C)C(=O)O[C@@H]3O[C@@]4(C)CC[C@@H]1[C@]32OO4 [ARTEMISININ] | – | 0.0121 µg/mL (≈ 0.043 µM) | 0.00824 µg/mL (≈ 0.0292 µM)
CCN(CC)CCCC(C)Nc1ccnc2cc(Cl)ccc12 (stereo not drawn) [CHLOROQUINE] | Active | – | –
